Measured values taken from patent publication US20070065519A1, “Copper ion-producing composition” (priority 2005, published 2007).

Columns and labels:
Legionella ssp. = format: cell-based
Escherichia coli = test: germicidal testing at 0.4 ppm chlorine (Comparative Example 2); format: cell-based; conditions: concentration of 0.4 ppm
Staphylococcus aureus = test: as above; format: cell-based; conditions: concentration of 0.4 ppm
[1] = time course of residual chlorine concentration in 42° C. hot water; conditions: chlorine level 0.4 ppm at start

## OCl [Sodium hypochlorite]
Legionella ssp.
  germicidal activity: no germicidal activity
Escherichia coli
  germicidal activity: no germicidal activity
Staphylococcus aureus
  germicidal activity: no germicidal activity
[1]; after 30 minutes
  residual concentration in the water (chlorine): 0.3 ppm
[1]; after 60 minutes
  residual concentration in the water (chlorine): 0.2 ppm
[1]; at 90 minutes
  residual concentration in the water (chlorine): 0 ppm
